Reference: patent US8916711B2, “Imidazothiazole-chalcone derivatives as potential anticancer agents and process for the preparation thereof” (Council of Scientific and Industrial Research, priority 2009, dated 2014)
Like-named read-outs stand apart in the source and are kept apart here.

How the values were obtained:
Assay type in all cases: cell-based
[1] = tested on: SF-295; assay: NCI in vitro cytotoxicity (SRB, 48 h), CNS panel; conditions: Homo sapiens; SF-295, CNS; 48 h exposure
[2] = tested on: Ovarian cancer cell lines; assay: NCI in vitro cytotoxicity, whole panel; conditions: Homo sapiens; for CC50: read-out: Log10 LC50 (converted)
[3] = tested on: HCT-15; assay: NCI in vitro cytotoxicity (SRB, 48 h), Colon panel; conditions: Homo sapiens; HCT-15, Colon; 48 h exposure
[4] = tested on: SK-MEL-2; assay: NCI in vitro cytotoxicity (SRB, 48 h), Melanoma panel; conditions: Homo sapiens; SK-MEL-2, Melanoma; 48 h exposure
[5] = tested on: HOP-92; assay: NCI in vitro cytotoxicity (SRB, 48 h), Non-small cell lung panel; conditions: Homo sapiens; for IC50: HOP-92, Table 4, read-out: Comparative efficacy
[6] = tested on: DU-145; assay: NCI in vitro cytotoxicity (SRB, 48 h), Prostate panel; conditions: Homo sapiens; DU-145, Prostate; 48 h exposure
[7] = tested on: COLO 205; assay: NCI in vitro cytotoxicity (SRB, 48 h), Colon panel; conditions: Homo sapiens; COLO 205, Colon; 48 h exposure
[8] = tested on: Colon cancer cell lines; assay: NCI in vitro cytotoxicity, whole panel; conditions: Homo sapiens; for CC50: read-out: Log10 LC50 (converted)
[9] = tested on: Leukemia cell lines; assay: NCI in vitro cytotoxicity, whole panel; conditions: Homo sapiens; for CC50: read-out: Log10 LC50 (converted)
[10] = tested on: EKVX; assay: NCI in vitro cytotoxicity (SRB, 48 h), Non-small cell lung panel; conditions: Homo sapiens, 48 h exposure
[11] = tested on: CCRF-CEM; assay: NCI in vitro cytotoxicity (SRB, 48 h), Leukemia panel; conditions: Homo sapiens, 48 h exposure
[12] = tested on: M14; assay: NCI in vitro cytotoxicity (SRB, 48 h), Melanoma panel; conditions: Homo sapiens, 48 h exposure
[13] = tested on: OVCAR-4; assay: NCI in vitro cytotoxicity (SRB, 48 h), Ovarian panel; conditions: Homo sapiens; OVCAR-4, Ovarian; 48 h exposure
[14] = tested on: BT-549; assay: NCI in vitro cytotoxicity (SRB, 48 h), Breast panel; conditions: Homo sapiens; BT-549, Breast; 48 h exposure
[15] = tested on: A498; assay: NCI in vitro cytotoxicity (SRB, 48 h), Renal panel; conditions: Homo sapiens, 48 h exposure
[16] = tested on: OVCAR-8; assay: NCI in vitro cytotoxicity (SRB, 48 h), Ovarian panel; conditions: Homo sapiens
[17] = tested on: KM12; assay: NCI in vitro cytotoxicity (SRB, 48 h), Colon panel; conditions: Homo sapiens, 48 h exposure
[18] = tested on: OVCAR-5; assay: NCI in vitro cytotoxicity (SRB, 48 h), Ovarian panel; conditions: Homo sapiens
[19] = tested on: SW-620; assay: NCI in vitro cytotoxicity (SRB, 48 h), Colon panel; conditions: Homo sapiens; SW-620, Colon; 48 h exposure
[20] = tested on: CNS cancer cell lines; assay: NCI in vitro cytotoxicity, whole panel; conditions: Homo sapiens; for CC50: read-out: Log10 LC50 (converted)
[21] = tested on: K-562; assay: NCI in vitro cytotoxicity (SRB, 48 h), Leukemia panel; conditions: Homo sapiens, K562; K-562, Leukemia; 48 h exposure
[22] = tested on: NCI/ADR-RES; assay: NCI in vitro cytotoxicity (SRB, 48 h), Ovarian panel; conditions: Homo sapiens, 48 h exposure
[23] = tested on: SR; assay: NCI in vitro cytotoxicity (SRB, 48 h), Leukemia panel; conditions: Homo sapiens, 48 h exposure
Protocol: (§1) The imidazothiazole-chalcone hybrids 7a, 7e, 7f, 8f and 19e have been tested against sixty human tumour cell lines derived from nine cancer types (leukemia, non-small cell lung cancer, colon cancer, CNS cancer, melanoma, ovarian cancer, renal cancer, prostate cancer and breast cancer) as per NCI protocol. For each compound, dose response curves for individual cell lines have been measured at a minimum of five concentrations at 10 fold dilutions. A protocol of 48 h continuous drug exposure has been used, and a sulforhodamine B (SRB) protein assay was used to estimate cell viability or growth. The concentration for 50% cell growth inhibition (GI50), total cell growth inhibition (TGI, 0% growth) and 50% cell death (LC50, […]) compared with the control has been calculated (Table-1).

[24] = tested on: HL-60(TB); assay: as above; conditions: Homo sapiens, 48 h exposure
Protocol: as §1

[25] = tested on: Non-small-cell lung cancer cell lines; assay: NCI in vitro cytotoxicity, whole panel; conditions: Homo sapiens; for CC50: read-out: Log10 LC50 (converted)
[26] = tested on: MALME-3M; assay: NCI in vitro cytotoxicity (SRB, 48 h), Melanoma panel; conditions: Homo sapiens, 48 h exposure
[27] = tested on: Prostate cancer cell lines; assay: NCI in vitro cytotoxicity, whole panel; conditions: Homo sapiens; for LC50: read-out: Log10 LC50 (converted)
[28] = tested on: ACHN; assay: NCI in vitro cytotoxicity (SRB, 48 h), Renal panel; conditions: Homo sapiens, 48 h exposure
[29] = tested on: MDA-MB-231/ATCC; assay: NCI in vitro cytotoxicity (SRB, 48 h), Breast panel; conditions: Homo sapiens; for GI50: Breast, 48 h exposure; for IC50: Table 4, read-out: Comparative efficacy
Protocol: as §1

[30] = tested on: MCF7; assay: as above; conditions: Homo sapiens; for IC50: MCF7, MCF-7, Table 4, read-out: Comparative efficacy; for GI50: MCF7, Breast, 48 h exposure
Protocol: as §1

[31] = tested on: SF-539; assay: NCI in vitro cytotoxicity (SRB, 48 h), CNS panel; conditions: Homo sapiens; SF-539, CNS; 48 h exposure
[32] = Ovarian, average of six to eight cell lines, read-out: Log10 GI50 (converted)
[33] = Ovarian, average of six to eight cell lines
[34] = exposure period of at least 48 hrs, read-out: GI50, range over ovarian cell lines
[35] = HOP-92, Non-small cell lung, 48 h exposure
[36] = Colon, average of six to eight cell lines, read-out: Log10 GI50 (converted)
[37] = Colon, average of six to eight cell lines
[38] = exposure period of at least 48 hrs, read-out: GI50, range over colon cell lines
[39] = Leukemia, average of six to eight cell lines, read-out: Log10 GI50 (converted)
[40] = Leukemia, average of six to eight cell lines
[41] = exposure period of at least 48 hrs, read-out: GI50, range over leukemia cell lines
[42] = OVCAR-8, Ovarian, 48 h exposure
[43] = OVCAR-5, Ovarian, 48 h exposure
[44] = CNS cell, exposure period of at least 48 hrs, read-out: GI50, range over CNS cell lines
[45] = CNS, average of six to eight cell lines, read-out: Log10 GI50 (converted)
[46] = CNS, average of six to eight cell lines
[47] = Non-small-cell lung, average of six to eight cell lines, read-out: Log10 GI50 (converted)
[48] = Non-small-cell lung, average of six to eight cell lines
[49] = exposure period of at least 48 hrs, read-out: GI50, range over lung cell lines
[50] = Prostate cell, exposure period of at least 48 hrs, read-out: GI50, range over prostate cell lines
[51] = Prostate, average of the panel's cell lines, read-out: Log10 GI50 (converted)
[52] = Prostate, average of the panel's cell lines

COc1ccc(-c2nc3sccn3c2/C=C/C(=O)c2cc(OC)c(OC)c(OC)c2)cc1 [Compound 7a, (E)-3-(6-(4-methoxyphenyl)imidazo[2,1-b]thiazol-5-yl)-1-(3,4,5-trimethoxyphenyl) prop-2-en-1-one]
GI50 [1]: 2.73 µM
GI50 [2, 32]: 1.86 µM
CC50 [2, 33]: 70.8 µM
GI50 [2, 34]: 0.21 to 4.05 µM
GI50 [3]: 3.45 µM
GI50 [4]: 2.42 µM
GI50 [5, 35]: 0.24 µM
GI50 ([5]; HOP-92, non-small cell lung): 0.24 µM
IC50 [5]: 0.24 µM
GI50 [6]: 2.62 µM
GI50 [7]: 2.52 µM
GI50 [8, 36]: 2.63 µM
CC50 [8, 37]: 72.4 µM
GI50 [8, 38]: 1.77 to 3.45 µM
GI50 [9, 39]: 2.24 µM
CC50 [9, 40]: ≥ 100 µM
GI50 [9, 41]: 1.66 to 3.08 µM
GI50 [10]: 3.12 µM
GI50 [11]: 3.08 µM
GI50 [12]: 2.33 µM
GI50 [13]: 4.05 µM
GI50 [14]: 3.46 µM
GI50 [15]: 2.99 µM
GI50 [16, 42]: 2.01 µM
GI50 ([16]; OVCAR-8, ovarian): 2.01 µM
GI50 [17]: 2.65 µM
GI50 [18, 43]: 1.99 µM
GI50 ([18]; OVCAR-5, ovarian): 1.99 µM
GI50 [19]: 3.16 µM
GI50 [20, 44]: 1.66 to 3.54 µM
GI50 [20, 45]: 2.63 µM
CC50 [20, 46]: ≥ 100 µM
GI50 [21]: 1.72 µM
GI50 [22]: 2.57 µM
GI50 [23]: 2.33 µM
GI50 [24]: 1.66 µM
GI50 [25, 47]: 1.95 µM
CC50 [25, 48]: 95.5 µM
GI50 [25, 49]: 0.24 to 3.7 µM
GI50 [26]: 5.42 µM
GI50 [27, 50]: 2.62 to 3.1 µM
GI50 [27, 51]: 2.88 µM
LC50 [27, 52]: ≥ 100 µM
GI50 [28]: 4.08 µM
GI50 [29]: 2.55 µM
IC50 [29]: 2.55 µM
IC50 [30]: 2.02 µM
GI50 [30]: 2.02 µM
GI50 [31]: 1.66 µM

COc1cc(C(=O)/C=C/c2c(-c3ccc(F)cc3)nc3sccn23)cc(OC)c1OC [Compound 7e, (E)-3-(6-(4-fluorophenyl)imidazo[2,1-b]thiazol-5-yl)-1-(3,4,5-trimethoxyphenyl)prop-2-en-1-one]
GI50 [1]: 1.8 µM
GI50 [2, 32]: 2.19 µM
CC50 [2, 33]: 52.5 µM
GI50 [2, 34]: 1.04 to 3.78 µM
GI50 [3]: 2.94 µM
GI50 [4]: 2.52 µM
GI50 [5, 35]: 1.05 µM
GI50 ([5]; HOP-92, non-small cell lung): 1.05 µM
IC50 [5]: 1.05 µM
GI50 [6]: 2.45 µM
GI50 [7]: 2.79 µM
GI50 [8, 36]: 2.63 µM
CC50 [8, 37]: 38 µM
GI50 [8, 38]: 2.11 to 2.99 µM
GI50 [9, 39]: 1.86 µM
CC50 [9, 40]: 70.8 µM
GI50 [9, 41]: 1.55 to 2.23 µM
GI50 [10]: 2.74 µM
GI50 [11]: 2.23 µM
GI50 [12]: 2.75 µM
GI50 [13]: 3.78 µM
GI50 [14]: 3.76 µM
GI50 [15]: 2.73 µM
GI50 [16, 42]: 1.98 µM
GI50 [17]: 2.3 µM
GI50 [18, 43]: 1.92 µM
GI50 [19]: 2.99 µM
GI50 [20, 44]: 1.74 to 3.73 µM
GI50 [20, 45]: 2.34 µM
CC50 [20, 46]: 52.5 µM
GI50 [21]: 1.55 µM
GI50 [22]: 2.1 µM
GI50 [23]: 1.73 µM
GI50 [24]: 1.77 µM
GI50 [25, 47]: 2.24 µM
CC50 [25, 48]: 56.2 µM
GI50 [25, 49]: 1.05 to 3.63 µM
GI50 [26]: 8.27 µM
GI50 [27, 50]: 2.45 to 3.43 µM
GI50 [27, 51]: 2.95 µM
LC50 [27, 52]: ≥ 100 µM
GI50 [28]: 2.96 µM
GI50 [29]: 2.49 µM
IC50 [29]: 2.49 µM
IC50 [30]: 2.24 µM
GI50 [30]: 2.24 µM
GI50 [31]: 1.74 µM
